In paper PMC9837035 (Nature Communications, 2023):
Several values for one entry are separate records, joined by “and”; a condition that tells them apart may be missing. Identical values can stand only once. Like-named read-outs stand apart in the source and are kept apart here.

Assays:
[1] = test system: ZBTB7A occupancy at the β-globin locus; assay: ChIP-qPCR with antibody against ZBTB7A in HUDEP-2 cells; type: cell-based, human; set-up: ChIP-qPCR, antibody against ZBTB7A: scale not given here; details: for occupancy of ZBTB7A: HUDEP-2, 4 days
Experimental: A total of 0.5–1 × 10^6 cells were cross-linked with 1% formaldehyde for 10 min at room temperature and the reaction was quenched with 250 mM glycine. Cross-linked cells were then lysed with buffer 1 (15 mM Tris-HCl (pH 7.5), 60 mM KCl, 15 mM NaCl, 5 mM MgCl2, 0.1 mM EGTA, 300 mM sucrose, […], 1 mM phenylmethanesulfonyl fluoride (PMSF), 0.5% NP40) and incubated on ice for 10 min. After centrifugation, the pellet was re-suspended in buffer 2 (15 mM Tris-HCl (pH 7.5), 60 mM KCl, 15 mM NaCl, 5 mM MgCl2, 0.1 mM EGTA, 1.2 M sucrose, […], 1 mM PMSF). After centrifugation, the pellet was then re-suspended in MNase buffer (50 mM Tris-HCl (pH 7.5), 1 mM CaCl2, 4 mM MgCl2, 320 mM sucrose, 1 mM PMSF) and digested with 100 U of micrococcal nuclease (Takara) at 37 °C for 15 min. After the reaction was quenched with 20 mM EDTA, the supernatants were incubated with antibodies (anti-H3K9me2 (1:100), Abcam, ab1220; anti-H3K9ac (1:100), Active Motif, 39917; Goat anti-IgG (H + L) (1:100), Jackson Immunoresearch; anti-BCL11A (1:100), Novus Biologicals, NB600-261; anti-ZBTB7A (1:100), Thermo Fisher Scientific, eBioscience (13E9); anti-CHD3 (1:100), Novus Biologicals, NB-100-60412; anti-CHD4 (1:100), abcam, ab240640) and Protein A/G PLUS-Agarose (Santa Cruz Biotechnology) overnight at 4 °C. Beads were washed sequentially once with the following buffers: wash buffer A (50 mM Tris-HCl (pH 7.5), 75 mM NaCl, 10 mM EDTA, 0.01% NP40), wash buffer B (50 mM Tris-HCl (pH 7.5), 100 mM NaCl, 10 mM EDTA, 0.01% NP40), wash buffer C (50 mM Tris-HCl (pH 7.5), 175 mM NaCl, 10 mM EDTA, 0.01% NP40). After treatment with proteinase K in buffer 4 (20 mM Tris-HCl (pH 8.0), 10 mM EDTA, 400 mM NaCl, 0.5% SDS) at 56 °C overnight, DNA was purified using the FastGene Gel/PCR Extraction Kit (Nippon Genetics). The samples were analyzed by qPCR. Primers are listed in Supplementary Table 10. ChIP-seq experiments were performed by GENEWIZ. Tracks were visualized using the integrative genome viewer. ChIP-seq analysis were analyzed Cutadapt (V1.9.1) for QC, FastQC (V0.10.1) for QC assessment, Bowtie (V2.1.0) for mapping, strand cross-correlation (SCC) for ChIP quality assessment, MACS2 for peak calling, and R package ChIPpeakAnno for Peak annotated.

HbF in HUDEP-2 cells = assay: Flow cytometry of HbF-expressing HUDEP-2 cells; type: cell-based, human; set-up: Flow cytometric analysis in HUDEP-2 cells: unit not given here; details: for Percentage of HbF-expressing cells: HUDEP-2, 11 days
Experimental: For the analysis of HbF expression, HUDEP-2 cells or cells differentiated from human CD34 + progenitor cells were fixed in 0.05% glutaraldehyde for 10 min, then washed two times with PBS containing 2% FBS (PBS/2% FBS) and permeabilized with 0.1% Triton X-100 (prepared in PBS/2% FBS; Life Technologies) for 5 min. After washing with PBS/2% FBS two times, cells were stained with allophycocyanin (APC)-conjugated HbF antibody (1:1, Invitrogen, MHFH05). One million cells were incubated with the HbF–APC antibody for 30 min in the dark at 4 °C. Cells were washed twice with PBS/2% FBS, then suspended in 0.2 ml PBS/2% FBS and analyzed using a FACSCalibur (Becton Dickinson). To assess erythroid differentiation, hematopoietic cells differentiated from human CD34 cells were stained with FITC-conjugated CD45 antibody (1:1, Becton Dickinson, 555482) and APC-conjugated glycophorin A antibody (1:20, Becton Dickinson, 551336). Stained cells were suspended in 0.2 ml PBS/2% FBS containing 1 μg/ml propidium iodide (Sigma) and analyzed by FACSCalibur. The results of flow cytometer were further analyzed by FlowJo software (Becton Dickinson).

SUV420H1TV2 = biological target: T1, SUV420H1TV2 (Homo sapiens, UniProt Q4FZB7); assay: Radioisotope-based methyltransferase assay (selectivity); type: biochemical
T1 construct: purchased Reaction Biology
T1 sequence (Q4FZB7 1-393 isoform Q4FZB7-2): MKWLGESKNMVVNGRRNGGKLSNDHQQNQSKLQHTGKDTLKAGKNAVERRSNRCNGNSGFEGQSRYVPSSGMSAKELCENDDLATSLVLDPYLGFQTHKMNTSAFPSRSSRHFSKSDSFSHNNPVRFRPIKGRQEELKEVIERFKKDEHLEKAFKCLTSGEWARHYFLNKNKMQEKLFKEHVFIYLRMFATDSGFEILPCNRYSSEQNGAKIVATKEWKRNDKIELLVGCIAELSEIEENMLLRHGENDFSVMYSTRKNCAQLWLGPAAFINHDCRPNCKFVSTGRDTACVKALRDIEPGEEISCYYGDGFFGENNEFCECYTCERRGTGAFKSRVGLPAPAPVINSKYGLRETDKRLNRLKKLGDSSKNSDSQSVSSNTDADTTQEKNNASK

PRMT3 = biological target: T2, PRMT3 (Homo sapiens, UniProt O60678); assay: as above; type: biochemical
T2 construct: purchased Reaction Biology
T2 sequence (O60678 whole entry): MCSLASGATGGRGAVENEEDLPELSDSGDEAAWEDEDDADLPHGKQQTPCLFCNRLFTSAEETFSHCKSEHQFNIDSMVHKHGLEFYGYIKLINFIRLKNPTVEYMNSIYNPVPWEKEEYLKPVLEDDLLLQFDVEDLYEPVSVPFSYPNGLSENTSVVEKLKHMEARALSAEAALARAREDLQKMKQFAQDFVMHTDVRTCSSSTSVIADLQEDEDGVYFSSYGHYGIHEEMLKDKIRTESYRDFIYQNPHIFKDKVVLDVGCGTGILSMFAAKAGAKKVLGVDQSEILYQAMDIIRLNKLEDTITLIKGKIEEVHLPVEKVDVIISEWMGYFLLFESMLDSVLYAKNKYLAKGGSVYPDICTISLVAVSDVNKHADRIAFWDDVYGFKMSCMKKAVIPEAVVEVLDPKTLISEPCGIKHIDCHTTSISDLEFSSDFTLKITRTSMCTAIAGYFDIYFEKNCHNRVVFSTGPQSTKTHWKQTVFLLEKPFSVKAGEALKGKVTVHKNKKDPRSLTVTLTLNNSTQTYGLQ

In the case of `NC(=O)NO` [Hydroxyurea, hydroxyurea], the “ChIP-qPCR, antibody against ZBTB7A” value ([1]; BGLT3 locus, HUDEP-2 cells treated with hydroxyurea, replicates 1a-3b) is reported as 0.2555 and 0.2878 and 0.489 and 0.1677 and 0.3852 and 0.1554, the “ChIP-qPCR, antibody against ZBTB7A” value ([1]; HS1, HUDEP-2 cells treated with hydroxyurea, replicates 1a-3b) is reported as 0.1321 and 0.1347 and 0.8135 and 0.9678 and 0.3385 and 0.3161 and the “ChIP-qPCR, antibody against ZBTB7A” value ([1]; HS2, HUDEP-2 cells treated with hydroxyurea, replicates 1a-3b) is reported as 0.5755 and 1.852 and 0.7582 and 2.507 and 0.9285 and 0.344. The “ChIP-qPCR, antibody against ZBTB7A” value ([1]; HS3, HUDEP-2 cells treated with hydroxyurea, replicates 1a-3b) was 3.3 and 2.712 and 3.199 and 3.147 and 3.201 and 2.452, the “ChIP-qPCR, antibody against ZBTB7A” value ([1]; HS4, HUDEP-2 cells treated with hydroxyurea, replicates 1a-3b) was 0.5937 and 0.6906 and 0.5556 and 0.0004431 and 0.6456 and 0.709 and the “occupancy of ZBTB7A” value [1] was “unchanged”. For the same compound, the “ChIP-qPCR, antibody against ZBTB7A” value ([1]; β-globin promoter, HUDEP-2 cells treated with hydroxyurea, replicates 1a-3b) was 0.3506 and 0.4318 and 0.349 and 0.2415 and 0.313 and 0.6542, the “ChIP-qPCR, antibody against ZBTB7A” value ([1]; γ-globin promoter, HUDEP-2 cells treated with hydroxyurea, replicates 1a-3b) was 0.3068 and 0.4102 and 0.3595 and 0.2786 and 0.238 and 0.2672 and the “ChIP-qPCR, antibody against ZBTB7A” value ([1]; δ-globin promoter, HUDEP-2 cells treated with hydroxyurea, replicates 1a-3b) was 0.2368 and 0.1088 and 0.2161 and 0.2308 and 0.337 and 0.2535.
With `Cc1c(C(=O)NC(CCC2CC2)C(=O)Nc2ccc(C#N)cc2)[nH]c2c1C(=O)CC(C)(C)C2` (stereo not shown) [RK-701] the “Flow cytometric analysis in HUDEP-2 cells” value (shortened to “Flow cytometric analysis”) (HbF in HUDEP-2 cells; 0.01 μM) was 6.04 and 5.19 and 7.23, the “Flow cytometric analysis” value (HbF in HUDEP-2 cells; 0.03 μM) was 7.86 and 6.03 and 10.4 and the “Flow cytometric analysis” value (HbF in HUDEP-2 cells; 0.1 μM) was 15.5 and 13.3 and 20.6. For the same compound, the “Flow cytometric analysis” value (HbF in HUDEP-2 cells; 0.3 μM) was 34.6 and 30.8 and 42.2, the “Flow cytometric analysis” value (HbF in HUDEP-2 cells; 1 μM) was 55.6 and 50.6 and 60.1 and the “Flow cytometric analysis” value (HbF in HUDEP-2 cells; 3 μM) was 42.6 and 54.1 and 68.6. The “Percentage of HbF-expressing cells” value (HbF in HUDEP-2 cells; 0.01 μM) was 6.2±0.8%, the “Percentage of HbF-expressing cells” value (HbF in HUDEP-2 cells; 0.03 μM) was 8.1±1.8% and the “Percentage of HbF-expressing cells” value (HbF in HUDEP-2 cells; 0.1 μM) was 16.5±3.1%. The “Percentage of HbF-expressing cells” value (HbF in HUDEP-2 cells; 0.3 μM) was 35.9±4.7%, the “Percentage of HbF-expressing cells” value (HbF in HUDEP-2 cells; 1 μM) was 55.4±3.9% and the “Percentage of HbF-expressing cells” value (HbF in HUDEP-2 cells; 3 μM) was 55.1±10.6%. For the same compound, the “ChIP-qPCR, antibody against ZBTB7A” value ([1]; BGLT3 locus, HUDEP-2 cells treated with RK-701, replicates) was 0.4785 and 0.7839 and 0.6066 and 0.47 and 0.614 and 0.4023, the “ChIP-qPCR, antibody against ZBTB7A” value ([1]; HS1, HUDEP-2 cells treated with RK-701, replicates) was 0.3678 and 0.05637 and 0.7128 and 0.4479 and 0.1475 and 0.1331 and the “ChIP-qPCR, antibody against ZBTB7A” value ([1]; HS2, HUDEP-2 cells treated with RK-701, replicates) was 1.5097 and 1.657 and 5.746 and 3.531 and 2.263 and 8.084 and 5.171. The “ChIP-qPCR, antibody against ZBTB7A” value ([1]; HS3, HUDEP-2 cells treated with RK-701, replicates) was 0.5878 and 1.255 and 2.352 and 2.616 and 1.402 and 1.245 and 2.743, the “ChIP-qPCR, antibody against ZBTB7A” value ([1]; HS4, HUDEP-2 cells treated with RK-701, replicates) was 0.4061 and 0.5382 and 0.8901 and 0.4009 and 0.2486 and the “occupancy of ZBTB7A” value [1] was “significantly reduced”. For the same compound, the “ChIP-qPCR, antibody against ZBTB7A” value ([1]; β-globin promoter, HUDEP-2 cells treated with RK-701, replicates) was 0.04529 and 0.1645 and 0.1359 and 0.07664 and 0.1559 and 0.07017 and 0.04448 and 0.1674 and 0.1136, the “ChIP-qPCR, antibody against ZBTB7A” value ([1]; γ-globin promoter, HUDEP-2 cells treated with RK-701, replicates) was 0.04733 and 0.01872 and 0.01192 and 0.1001 and 0.03782 and 0.06607 and 0.08612 and the “ChIP-qPCR, antibody against ZBTB7A” value ([1]; δ-globin promoter, HUDEP-2 cells treated with RK-701, replicates) was 0.02578 and 0.1044 and 0.02059 and 0.06153 and 0.0851 and 0.07628. It also gave an IC50 (SUV420H1TV2; SUV420H1TV2, 1 μM SAM) greater than 100 µM, an IC50 (SUV420H1TV2; SUV420H1TV2, RK-701 in duplicate) greater than 100 µM and an IC50 (PRMT3; PRMT3, 1 μM SAM) greater than 100 µM. For the same compound, the IC50 (PRMT3; PRMT3, RK-701 in duplicate) was greater than 100 µM.
With `Cc1c(C(=O)N[C@H](CCC2CC2)C(=O)Nc2ccc(C#N)cc2)[nH]c2c1C(=O)CC(C)(C)C2` [RK-0133114] the “Flow cytometric analysis” value (HbF in HUDEP-2 cells; 3 μM) was 7.47 and 5.8 and 9.04, the HbF induction (HbF in HUDEP-2 cells; HUDEP-2) was “failed to increase HbF” and the “Percentage of HbF-expressing cells” value (HbF in HUDEP-2 cells; 3 μM) was 7.4±1.3%.
Work on `Nc1ncnc2c1ncn2[C@@H]1O[C@H](CSCC[C@H](N)C(=O)O)[C@@H](O)[C@H]1O` [SAH, S-(5'-Adenosyl)-L-homocysteine, reference compound] yielded an IC50 (SUV420H1TV2) of 126 µM, an IC50 (PRMT3; PRMT3, 1 μM SAM) of 2.4 µM and an IC50 (PRMT3; PRMT3, RK-701 in duplicate) of 2.44 µM.
